This assay relates to laser-induced choroidal neovascularization. As to the kind of experiment: Laser induction of choroidal neovascularization in mice, oral treatment. The format is in vivo, C57BI6 mice. Conditions: 30 mg/kg/day orally during the last 7 days, day 14 after induction. Here is the method: C57BI6 mice were used in these experiments. A model of laser-induced choroidal neovascularization (4 impacts per eye around the papilla) was applied to the animals as described by Tobe et al. Am. J. Pathol., 1998).
On day 14 after the induction and after monitoring by angiography, which makes it possible to estimate the percentage of lesions developing neovascularization, the animals are sacrificed and the eyeballs are enucleated for histological analysis. The mice are treated orally with one of the compounds of formula (I) during the last 7 days. The dose chosen for the monohydrate of the sodium salt of 2-amino-5-[(1-methoxy-2-methylindolizin-3-yl)carbonyl]benzoic acid is 30 mg/kg/day. The vehicle used is a 0.6% solution of methylcellulose in water.
Four mice are used for the control group and six mice for the treated group.
The size of the neovascular reaction is estimated from frozen sections by morphometric evaluations of the thickness using a computerized image analysis system. […]
Estimation is carried out by measuring the B/C ratio between, on the one hand, the EPR and the peak of the neovascular reaction (“B”), and, on the other hand, the thickness of the adjacent intact choroidal layer (“C”). This quantifying system was preferred to measuring surface areas of lesions as it is independent of the orientation of the histological sections.

Results on 1 compound are retold here after patent publication US20090030034A1, “USE OF FGF INHIBITING SUBSTITUTED 1,2,3 INDOLIZINE DERIVATIVES IN THE PREPARATION OF MEDICAMENTS WHICH CAN BE USED TO TREAT DISEASES LINKED TO PATHOLOGICAL CHOROIDAL ANGIOGENESIS” (SANOFI-AVENTIS, priority 2004, published 2009).

Regarding `COc1c(C)c(C(=O)c2ccc(N)c(C(=O)O)c2)n2ccccc12` [2-amino-5-[(1-methoxy-2-methylindolizin-3-yl)carbonyl]benzoic acid], the “histological analysis and anti-CD31 immunohistochemistry of the laser impact sites” value is listed as “only a moderate thickening of the choriocapillary where the impacts occurred, without obvious sign of neovascularization”. Besides, where the note is “frozen sections, morphometric thickness, p<0.001”, the “reduction of the laser-induced neovascular reaction, quantified by the B/C ratio, in comparison with the control mice” value was roughly 50%.
